PubChem BioAssay AID1259407 (Chemical Carcinogenesis Research Information System (CCRIS), 2018)
The source made the active and inactive calls. How the calls were made is not given here.

Tested on: CCRIS mutagenicity, Ames/micronucleus/aberration tests
Assay: CCRIS mutagenicity studies
[1] = Test System: AMES SALMONELLA TYPHIMURIUM, Strain/Indicator: TA98, Metabolic Activation: NONE, Method: STANDARD PLATE
[2] = Test System: AMES SALMONELLA TYPHIMURIUM, Strain/Indicator: TA100, Metabolic Activation: NONE, Method: STANDARD PLATE
[3] = Test System: AMES SALMONELLA TYPHIMURIUM, Strain/Indicator: TA98, Metabolic Activation: NONE, Method: PREINCUBATION
[4] = Test System: AMES SALMONELLA TYPHIMURIUM, Strain/Indicator: TA100, Metabolic Activation: NONE, Method: PREINCUBATION

Cc1ccc(N=Nc2c(O)ccc3ccccc23)c(C)c1
mutagenic call (Test System: AMES SALMONELLA TYPHIMURIUM, Strain/Indicator: TA98, Metabolic Activation: HAMSTER, LIVER, S-9, AROCLOR 1254 (5,20%), Method: PREINCUBATION): active; positive
mutagenic call (Test System: AMES SALMONELLA TYPHIMURIUM, Strain/Indicator: TA98, Metabolic Activation: HAMSTER, LIVER, S-9, AROCLOR 1254, Method: STANDARD PLATE): active; positive
mutagenic call (Test System: AMES SALMONELLA TYPHIMURIUM, Strain/Indicator: TA98, Metabolic Activation: HAMSTER, LIVER, S-9, Method: PREINCUBATION (PRIVAL METHOD)): active; positive
mutagenic call [1]: inactive; negative
mutagenic call (Test System: AMES SALMONELLA TYPHIMURIUM, Strain/Indicator: TA98, Metabolic Activation: RAT, BLADDER, S-9, PCB, Method: FLUCTUATION TEST): inactive; negative
mutagenic call (Test System: AMES SALMONELLA TYPHIMURIUM, Strain/Indicator: TA98, Metabolic Activation: RAT, LIVER, S-9, AROCLOR 1254, HAMSTER, LIVER, S-9, AROCLOR 1254, Method: STANDARD PLATE): active; positive
mutagenic call (Test System: AMES SALMONELLA TYPHIMURIUM, Strain/Indicator: TA98, Metabolic Activation: RAT, LIVER, S-9, Method: STANDARD PLATE): inactive; negative
mutagenic call (Test System: AMES SALMONELLA TYPHIMURIUM, Strain/Indicator: TA100, Metabolic Activation: HAMSTER, LIVER, S-9, Method: PREINCUBATION (PRIVAL METHOD)): active; positive
mutagenic call [2]: inactive; negative
mutagenic call (Test System: AMES SALMONELLA TYPHIMURIUM, Strain/Indicator: TA100, Metabolic Activation: RAT, BLADDER, S-9, PCB, Method: FLUCTUATION TEST): inactive; negative
mutagenic call (Test System: AMES SALMONELLA TYPHIMURIUM, Strain/Indicator: TA100, Metabolic Activation: RAT, LIVER, S-9, Method: STANDARD PLATE): inactive; negative
mutagenic call (Test System: AMES SALMONELLA TYPHIMURIUM, Strain/Indicator: TA1538, Metabolic Activation: RAT, LIVER, S-9, AROCLOR 1254, HAMSTER, LIVER, S-9, AROCLOR 1254, Method: STANDARD PLATE): active; positive
mutagenic call (Test System: Mouse lymphoma, Strain/Indicator: L5178Y (tk+/tk-), Metabolic Activation: None, Method: Suspension/plate): inactive; negative
mutagenic call (Test System: Mouse lymphoma, Strain/Indicator: L5178Y (tk+/tk-), Metabolic Activation: Rat, Liver, S-9, Aroclor 1254, Method: Suspension/plate): inactive; negative

OC1c2cccc3c2C2(OC2C1O)c1ccc2ccccc2c1-3 (stereo unspecified)
mutagenic call (Test System: AMES SALMONELLA TYPHIMURIUM, Strain/Indicator: TA97A, Metabolic Activation: NONE, Method: PREINCUBATION): active; positive
mutagenic call [3]: active; positive
mutagenic call [4]: active; positive

c1ccc2c(c1)-c1cc3ccccc3cc1[C@@H]1N[C@H]21
mutagenic call [3]: active; positive
mutagenic call [1]: active; positive
mutagenic call [2]: active; positive

CCCC(=O)OCc1ccc([N+](=O)[O-])cc1
mutagenic call [3]: inactive; negative
mutagenic call (Test System: AMES SALMONELLA TYPHIMURIUM, Strain/Indicator: TA100(NR), Metabolic Activation: NONE, Method: PREINCUBATION): inactive; negative
mutagenic call [4]: active; positive
mutagenic call (Test System: AMES SALMONELLA TYPHIMURIUM, Strain/Indicator: TA100, Metabolic Activation: RAT, LIVER, S-9, AROCLOR 1254, Method: PREINCUBATION): active; positive

NC(CO)C(=O)O (stereo unspecified)
mutagenic call (Test System: AMES SALMONELLA TYPHIMURIUM, Strain/Indicator: TA98, Metabolic Activation: RAT LIVER S-9, CHLOROPHENE, Method: STANDARD PLATE (COMPOUND HEATED AT 250 DEGREES CELSIUS FOR 20 MIN)): inactive; negative

O=NN(CCCl)C(=O)NC1CCCCC1
mutagenic call (End Point: IN VITRO CHROMOSOMAL ABERRATIONS, Test System: HUMAN HCT116/3-6 CELLS, Metabolic Activation: NONE): active; positive
mutagenic call (End Point: IN VITRO CHROMOSOMAL ABERRATIONS, Test System: HUMAN HCT116 CELLS, Metabolic Activation: NONE): active; positive
mutagenic call (End Point: IN VITRO CHROMOSOMAL ABERRATIONS, Test System: HUMAN MT1 CELLS, Metabolic Activation: NONE): active; positive
mutagenic call (End Point: IN VITRO CHROMOSOMAL ABERRATIONS, Test System: HUMAN TK6 CELLS, Metabolic Activation: NONE): active; positive
mutagenic call (Test System: AMES SALMONELLA TYPHIMURIUM, Strain/Indicator: TA97, Metabolic Activation: NONE, Method: STANDARD PLATE): inactive; negative
mutagenic call (Test System: AMES SALMONELLA TYPHIMURIUM, Strain/Indicator: TA97, Metabolic Activation: RAT, LIVER, S-9, PHENOBARBITAL AND ALPHA-NAPHTHOFLAVONE, Method: STANDARD PLATE): inactive; negative
mutagenic call [3]: inactive; negative
mutagenic call [1]: inactive; negative
mutagenic call (Test System: AMES SALMONELLA TYPHIMURIUM, Strain/Indicator: TA98, Metabolic Activation: RAT, LIVER, S-9, PHENOBARBITAL AND ALPHA-NAPHTHOFLAVONE, Method: STANDARD PLATE): inactive; negative
mutagenic call (Test System: AMES SALMONELLA TYPHIMURIUM, Strain/Indicator: TA98, Metabolic Activation: S-9, Method: PREINCUBATION): inactive; negative
mutagenic call [4]: active; positive
mutagenic call [2]: active; positive
mutagenic call (Test System: AMES SALMONELLA TYPHIMURIUM, Strain/Indicator: TA100, Metabolic Activation: RAT, LIVER, S-9, PHENOBARBITAL AND ALPHA-NAPHTHOFLAVONE, Method: STANDARD PLATE): active; positive
mutagenic call (Test System: AMES SALMONELLA TYPHIMURIUM, Strain/Indicator: TA100, Metabolic Activation: S-9, Method: PREINCUBATION): active; positive
mutagenic call (Test System: AMES SALMONELLA TYPHIMURIUM, Strain/Indicator: TA1535, Metabolic Activation: NONE, Method: STANDARD PLATE): active; positive
mutagenic call (Test System: AMES SALMONELLA TYPHIMURIUM, Strain/Indicator: TA1535, Metabolic Activation: RAT, LIVER, S-9, PHENOBARBITAL AND ALPHA-NAPHTHOFLAVONE, Method: STANDARD PLATE): active; positive
mutagenic call (Test System: CHINESE HAMSTER V-79, Strain/Indicator: V-79/6-THIOGUANINE, Metabolic Activation: NONE, Method: STANDARD PLATE): active; positive

CC1(C(=O)Nc2ccccc2)CO1 (stereo unspecified)
mutagenic call (Test System: AMES SALMONELLA TYPHIMURIUM, Strain/Indicator: TA100, Metabolic Activation: MOUSE, LIVER, S-9, AROCLOR 1254, Method: STANDARD PLATE): active; positive
mutagenic call [2]: active; positive

CCCCCC(=O)O
mutagenic call (Test System: AMES SALMONELLA TYPHIMURIUM, Strain/Indicator: TA97, Metabolic Activation: NONE, Method: PREINCUBATION): inactive; negative
mutagenic call (Test System: AMES SALMONELLA TYPHIMURIUM, Strain/Indicator: TA97, Metabolic Activation: RAT, LIVER, S-9, AROCLOR 1254, Method: PREINCUBATION): inactive; negative
mutagenic call (Test System: AMES SALMONELLA TYPHIMURIUM, Strain/Indicator: TA102, Metabolic Activation: NONE, Method: PREINCUBATION): inactive; negative
mutagenic call (Test System: AMES SALMONELLA TYPHIMURIUM, Strain/Indicator: TA102, Metabolic Activation: RAT, LIVER, S-9, AROCLOR 1254, Method: PREINCUBATION): inactive; negative

c1ccc2c(c1)ccc1c2ccc2ccc3ccccc3c21
mutagenic call (Test System: AMES SALMONELLA TYPHIMURIUM, Strain/Indicator: TA100, Metabolic Activation: RAT, LIVER, MICROSOMES, AROCLOR 1254, Method: STANDARD PLATE): active; positive
mutagenic call (Test System: AMES SALMONELLA TYPHIMURIUM, Strain/Indicator: TA100, Metabolic Activation: RAT, LIVER, MICROSOMES, BENZO[C]CHRYSENE, Method: STANDARD PLATE): inactive; negative
mutagenic call (Test System: AMES SALMONELLA TYPHIMURIUM, Strain/Indicator: TA100, Metabolic Activation: RAT, LIVER, MICROSOMES, Method: STANDARD PLATE): inactive; negative
